Series [1] deals with smokers. Particulars: cited from earlier work.
The test system of series [2] is smokers. Particulars: cited from earlier work. This is another data set of the same source.
The conditions of series [3]: Cochrane (n > 7000); cited from earlier work.
Series [4] deals with adults smoking 10+ cigarettes daily.
Experimental: This was a six-arm, multi-center, double-blind, randomized, placebo-controlled study conducted in male or female adults years of age, smoking 10+ cigarettes daily, and willing to set a quit date that is 5-7 days after randomization. […] The study also evaluated the effectiveness of a simplified TID dosing schedule for 1.5 mg and an increased dose of 3.0 mg (using both the commercial titration (COM) and simplified TID dosing schedules).
Study treatment started the day after randomization such that study treatment was initiated prior to the quit date, as shown in FIG. 3.
The primary efficacy endpoint for this study was the percent reduction in the number of cigarettes smoked during treatment, which was calculated as follows:
[formula] where N=total number of cigarettes smoked, B=number of cigarettes smoked at baseline and D=number of days.
The primary outcome (Cigarette Score) and the main secondary abstinence outcomes were subjected to sensitivity analyses. The main secondary abstinence outcomes were the initial quit rate at Week 4 and continued 4-week abstinence through Week 5 to Week 8, confirmed by expired CO of <10 ppm designated as Cess/W5-8/CO Success.
The primary outcome was based on the number of cigarettes smoked on each day from a diary. The Cigarette Score used the diary data for the planned 25 days while on study treatment. Presented are sensitivity analyses for the comparison of the 3.0 mg TID arm and the pooled placebo arm related to variations on the primary analysis of Cigarette Score. The alternative definition of the Cigarette Score featured cigarettes recorded in the diary after the planned quit period of Days 5-7, that is, from Day 8 onward, instead of from Day 1 onward.
Another alterative analysis was based on re-analyses of the primary Cigarette Score and the above alternative Cigarette Score, with a weight related to the standard error of the mean number of cigarettes estimated from the diary entries. The weight used for each subject was 1/(SE)^2, where SE is the standard error of the mean estimate, and this type of weighting, referred to as inverse variance weighting, is used commonly. This weighting gives greater weight to means that are estimated with a smaller SE. A small modification to this definition of weight was necessary, however. In computing 1/(SE)^2, a specific rule was used when SE=0, specifically when all diary entry values were equal. In these cases, the SE was computed as if one and only one of the recorded values was larger by one. It can be shown that when this modification to the data is made SE=1/N, where N is the number of the subjects daily (days) entries.
Series [5] deals with alpha4, beta2 (α4β2) receptors (Homo sapiens, UniProt P17787+P43681). The conditions noted are these: cited from earlier work.
The mark [6] stands for this setting: end of treatment, 12 weeks (EAGLES).
Setting [7] is: 1.5 mg Downward Titration (n = 51).
Where [8] appears, read: 3.0 mg Downward Titration (n = 50).

Where two headings read alike, the source gives them in different places.

The source of these data is patent publication US11083716B2 (Achieve Life Sciences, Inc., priority 2019, dated 2021).
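Throughout, for TEAE: Abnormal dreams, subjects n (%): multicenter double-blind randomized placebo-controlled trial in adult smokers of 10 or more cigarettes per day, counting subjects with treatment-emergent adverse events per arm.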
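Throughout, for TEAE: At least 1 AE, subjects n (%): multicenter double-blind randomized placebo-controlled trial in adult smokers of 10 or more cigarettes per day, counting subjects with treatment-emergent adverse events per arm.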
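Throughout, for TEAE: Fatigue, subjects n (%): multicenter double-blind randomized placebo-controlled trial in adult smokers of 10 or more cigarettes per day, counting subjects with treatment-emergent adverse events per arm.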
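Throughout, for TEAE: Headache, subjects n (%): multicenter double-blind randomized placebo-controlled trial in adult smokers of 10 or more cigarettes per day, counting subjects with treatment-emergent adverse events per arm.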

Sequence of alpha4, beta2 (α4β2) receptors (P43681 29-627 limits assumed): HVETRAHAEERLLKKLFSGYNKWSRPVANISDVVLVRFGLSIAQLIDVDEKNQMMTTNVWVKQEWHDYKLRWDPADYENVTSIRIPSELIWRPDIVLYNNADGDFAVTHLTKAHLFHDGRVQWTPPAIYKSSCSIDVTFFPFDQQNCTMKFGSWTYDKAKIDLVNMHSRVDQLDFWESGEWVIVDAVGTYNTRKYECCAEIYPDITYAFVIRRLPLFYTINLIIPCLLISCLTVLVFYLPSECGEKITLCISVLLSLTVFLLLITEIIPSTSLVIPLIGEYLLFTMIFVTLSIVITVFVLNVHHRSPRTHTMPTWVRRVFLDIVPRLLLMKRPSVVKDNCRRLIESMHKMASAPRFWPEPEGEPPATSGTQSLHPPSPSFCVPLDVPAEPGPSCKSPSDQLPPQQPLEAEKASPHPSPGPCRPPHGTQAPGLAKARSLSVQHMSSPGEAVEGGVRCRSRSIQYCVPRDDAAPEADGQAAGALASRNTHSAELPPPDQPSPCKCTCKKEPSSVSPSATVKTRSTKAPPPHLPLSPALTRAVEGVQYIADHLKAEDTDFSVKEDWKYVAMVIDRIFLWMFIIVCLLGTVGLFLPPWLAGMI
Sequence of alpha4, beta2 (α4β2) receptors (P17787 26-502): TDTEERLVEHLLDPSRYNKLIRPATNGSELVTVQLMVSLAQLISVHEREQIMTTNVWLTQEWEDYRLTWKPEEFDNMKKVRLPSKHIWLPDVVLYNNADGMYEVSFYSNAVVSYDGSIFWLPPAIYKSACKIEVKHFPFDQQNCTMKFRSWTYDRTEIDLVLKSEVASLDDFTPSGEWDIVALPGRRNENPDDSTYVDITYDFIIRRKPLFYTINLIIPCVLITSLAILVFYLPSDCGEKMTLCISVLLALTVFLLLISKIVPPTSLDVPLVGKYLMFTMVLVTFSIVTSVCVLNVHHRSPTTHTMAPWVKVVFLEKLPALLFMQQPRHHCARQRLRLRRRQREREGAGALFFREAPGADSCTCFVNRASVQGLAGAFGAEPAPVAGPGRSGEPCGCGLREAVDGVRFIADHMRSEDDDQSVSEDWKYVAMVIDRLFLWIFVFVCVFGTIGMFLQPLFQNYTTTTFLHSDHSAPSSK

`c1cnc2cc3c(cc2n1)[C@@H]1CNC[C@H]3C1` [Chantix ®, varenicline]: in series [1] (4 weeks off treatment (EAGLES)), the “Drug-placebo difference in quit rate” value is on record as 20.7% and the “OR, quit rate versus placebo” value is given as 3.5. In series [1] (12 weeks (EAGLES)), the “Quit Rate at End of Treatment” value is on record as 38.0%. Moreover, in series [1] (Region Non-U.S.), the “CAR weeks 9-24 % (95% CI)” value was 27.9 (25.2-30.8) % and the “Versus placebo OR (95% CI), CAR weeks 9-24” value is reported as 2.80 (2.20-3.55). The “Versus placebo OR (95% CI), CAR weeks 9-24” value in series [1] (Region U.S.) is 2.66 (1.99-3.55). Also, the “CAR weeks 9-24 % (95% CI)” value in series [1] (Region U.S., listed as Chantix®) is 16%. Further, the “CAR weeks 9-24 % (95% CI)” value in series [1] (Region U.S., listed as Varenicline) is 16.1 (14.0-18.4) %. In addition, the “overall quit rate at 24 weeks” value in series [1] (all regions (EAGLES)) is 22%. Further, in series [1] (setting [6]), the “Drug-placebo difference in quit rate” value is reported as 24.3% and the “OR, quit rate versus placebo” value is reported as 4.0. Also, in series [1] (sustained quit (EAGLES)), the “Quit Rate at 4 Weeks Off Treatment” value was 33.2%. Moreover, the “Quit Rate at 4 Weeks Treatment” value in series [2] (4 weeks (ONCKEN)) is recorded as 37.7%. Moreover, in series [2] (4 weeks treatment (ONCKEN)), the “Drug-placebo difference in quit rate” value was 21.4% and the “OR, quit rate versus placebo” value is recorded as 3.1. Also, in series [3], the Abnormal dreams was 12.5%, the Headache is 12.7%, the Insomnia is 14.2% and the Nausea is given as 27.8%. The “Serious AEs” value in series [3] is listed as 3.3%.

With `O=c1cccc2n1C[C@@H]1CNC[C@H]2C1` [cytisine, (−)-Cytisine], the “Reduction in CO (expired)” value in series [4] (1.5 mg TID) amounted to 71%; in series [4] (1.5 mg, titration (COM) schedule), 78%; in series [4] (3.0 mg TID), 80%; in series [4] (3.0 mg, titration (COM) schedule), 71%. The “OR, quit rate versus placebo” value in series [4] (3.0 mg TID, 4 weeks off treatment, Table 11) amounted to 5.0; in series [4] (3.0 mg TID, end of treatment (4 weeks), Tables 9-10), 6.3. In series [4] (all cytisine-treated arms, Week 4), the serum cotinine levels result is recorded as “material reduction”. In series [4] (weighted analysis, diary from start of intervention), the “Cigarette Score effect estimate (95% confidence interval), 3.0 mg TID versus pooled placebo” value is recorded as −11.8 (−24.4, 0.9). The “TEAE: Abnormal dreams, subjects n (%)” value under setting [7] is on record as 4 (8%); the “TEAE: Abnormal dreams, subjects n (%)” value (1.5 mg TID (n = 52)) is listed as 4 (8%); the “TEAE: Abnormal dreams, subjects n (%)” value under setting [8] is recorded as 7 (14%); the “TEAE: Abnormal dreams, subjects n (%)” value (3.0 mg TID (n = 50)) is reported as 3 (6%); the “TEAE: Abnormal dreams, subjects n (%)” value (Pooled Cytisinicline (n = 203)) is 18 (9%). Besides, the “TEAE: At least 1 AE, subjects n (%)” value is 29 (57%) under setting [7]; 20 (39%) (1.5 mg TID (n = 52)); 23 (46%) under setting [8]; 21 (42%) (3.0 mg TID (n = 50)); 93 (46%) (Pooled Cytisinicline (n = 203)). Moreover, the “TEAE: Fatigue, subjects n (%)” value is, setting by setting: under setting [7], 1 (2%); (1.5 mg TID (n = 52)) 3 (6%); under setting [8], 2 (4%); (3.0 mg TID (n = 50)) 1 (2%); (Pooled Cytisinicline (n = 203)) 7 (3%). Moreover, the “TEAE: Headache, subjects n (%)” value is, setting by setting: under setting [7], 1 (2%); (1.5 mg TID (n = 52)) 6 (12%); under setting [8], 1 (2%); (3.0 mg TID (n = 50)) 2 (4%); (Pooled Cytisinicline (n = 203)) 10 (5%). Further, the “TEAE: Insomnia, subjects n (%)” value under setting [7] was 3 (6%); the “TEAE: Insomnia, subjects n (%)” value (1.5 mg TID (n = 52)) was 4 (8%); the “TEAE: Insomnia, subjects n (%)” value under setting [8] is given as 4 (8%); the “TEAE: Insomnia, subjects n (%)” value (3.0 mg TID (n = 50)) was 3 (6%); the “TEAE: Insomnia, subjects n (%)” value (Pooled Cytisinicline (n = 203)) is 14 (7%). Further, the “TEAE: Nausea, subjects n (%)” value is, setting by setting: under setting [7], 5 (10%); (1.5 mg TID (n = 52)) 1 (2%); under setting [8], 3 (6%); (3.0 mg TID (n = 50)) 3 (6%); (Pooled Cytisinicline (n = 203)) 12 (6%). For the same molecule, the “TEAE: URTI, subjects n (%)” value is listed as 3 (6%) under setting [7]; 5 (10%) (1.5 mg TID (n = 52)); 2 (4%) under setting [8]; 3 (6%) (3.0 mg TID (n = 50)); 13 (6%) (Pooled Cytisinicline (n = 203)). The “TEAE: Constipation, subjects n (%)” value is, setting by setting: (1.5 mg TID (n = 52)) 1 (2%); (3.0 mg TID (n = 50)) 3 (6%); (Pooled Cytisinicline (n = 203)) 4 (2%). For the same molecule, the “overall safety following dosing” value (1.5 mg or 3.0 mg treatment arms on both schedules) was “no safety concerns”. In addition, the “Serious AEs” value (ORCA-1, pooled Cytisinicline (n = 203)) was found to be 0. The “binding to receptor subtype” value in series [5] was “bind strongly and preferentially”.

As to `CN1CCCC1c1cccnc1` (stereo not shown) [nicotine, Nicotine, reference compound], the “binding to receptor subtype” value in series [5] is “bind strongly and preferentially”.
